Test results published in patent EP1452605A1, “Method for determining antiviral activity” (Universiteit Utrecht Holding B.V., priority 2003, dated 2004).

Experiments:
RSV serotype A = assay: RSV infection of HEp-2 cells, FACS with FITC anti-RSV antibody; assay type: cell-based, Respiratory syncytium virus (RSV); details: HEp-2 cells, 4, 5 and 6 days, all APHS concentrations tested
Description: RSV infection of the HEp-2 cell line was performed as described elsewhere (Hament J-M et al., submitted for publication). Briefly, HEp-2 cells were recovered from the culture flasks by trypsinization. Concentrations of HEp-2 cells were determined by microscopic observation in order to have a confluent monolayer at the day of measurement. HEp-2 cells were incubated with APHS and infected with different dilutions of RSV in order to have a good infection at the day of measurement. […] The cells were washed with PBS^2+ (PBS containing 0.15 mM Ca^2+ and 0.5 mM Mg^2+) and incubated with murine-anti-RSV monoclonal antibody conjugated to fluorescein isothiocyanate (FITC) (DAKO, Cambridgeshire, UK) for 15 minutes at 37 °C. Afterwards, cells were washed and resuspended in PBS^2+. Percentage of fluorescent cells was analyzed by FACSCalibur flow cytometer (Becton Dickinson, CA, USA) with computer assisted evaluation data (CellQuest Pro).

HXB2 = assay: Drug susceptibility assay (cell-killing MTT assay) in MT-2 cells; details: Human immunodeficiency virus 1, HXB2, MT2, 120 h
Description: (§2) The cells were maintained at 37°C, 5% CO2. One day prior to the experiments, the cells were passaged 1:1 in a concentration of 1 × 10^6 cells/ml.
(§3) The genes that contain the drug resistance mutations are excised from the clinical isolates and cloned into the genetic background of HXB2. Thus all tested HIV-1 strains have the same genetic background. […] This strain contains an insertion of two a.a. between codons 68 and 69 of RT as well as an a.a. change at codon 67.
(§4) After 5 days of incubation a cellular viability assay was performed as described above. In this case, the amount of formazan reflects the number of cells protected by the drug against killing by the virus and is used as a read out for drug susceptibility.

[1] = Cellular viability assay (MTT) of MDM; assay type: cell-based; details: human, 7 days, read-out: TC50
HIV-1HXB2 [2] = assay: Reverse transcription assay in PBMC: (-) strong stop and gag DNA by real-time Taqman PCR; assay type: cell-based; details: 10h after infection
Description: PBMC infection with HIV-1Ba-L or HIV-1HXB2 for real-time Taqman PCR The ability of HIV-1Ba-L to enter the cells in the presence of APHS was tested using DS as positive control (entry assay). The amount of HIV-1HXB2 reverse transcription products in the presence of APHS was also tested, using AZT as positive control (reverse transcription assay). Before infection, PHA-stimulated PBMC from the PBMC batch were pre-incubated with different concentrations of APHS, DS or AZT for 24 h. Afterwards, cells were washed and 1 × 10^6 PBMC were incubated for 40 min with HIV-1Ba-L or HIV-1HXB2 at an M.O.I. of 0.0025 and with appropriate concentrations of APHS, AZT, DS or medium in the presence of 1/20 concentrated M buffer (Roche) and 4U/ml DNase (Roche) to digest possible contaminating viral DNA associated with the virions. Afterwards PBMC were washed and resuspended in medium with or without compounds. Cells were treated with 1 mg/ml Pronase (Roche) to remove virus particles bound to the cells. […] At different time points, 1.0 × 10^6 cells were added to 900 µl Nuclisens lysis buffer (Organon Teknika, Boxtel, The Netherlands) containing 40 µl silica to bind total nucleic acids (Nuclisens isolation kit). For the entry assay, samples were collected 2h after the start of the infection and for the reverse transcription assays samples were collected 2, 7 and 10h after the start of the infection.
HIV RNA and DNA were extracted from samples of infected cells according to a method described before ^23. Briefly, after 10 min of mixing the silica and lysis buffer, tubes were shortly centrifuged at 13,000 rpm and supernatant was discarded. Free non-nucleic acid components were removed by washing the silica particles twice with Nuclisens washing buffer, twice with 70 % ethanol and once with acetone. The silica pellet was dried for 10 min at 56 °C. Total nucleic acids were eluted by resuspending the pellet in 100 µl nuclease-free water. After mixing the tubes for 10 min at 56 °C, tubes were shortly centrifuged and the supernatant was transferred to a new tube and stored at -20 °C.
Real-time Taqman PCR is based on cleavage of a probe, hybridized to the target sequence by 5'-3' nuclease activity of Taq DNA polymerase during amplification, as described previously ^24. Briefly, target sequence-specific forward and reverse primers prime the amplification reaction. The probe contains a reporter dye at the 5' end and a quencher dye at the 3' end. When both dyes are attached to the probe, reporter dye emission is quenched. The probe is displaced from the target during each polymeration cycle. Once separated from the quencher, the reporter dye emits its characteristic fluorescence, which can then be measured. The amount of fluorescence measured is proportional to the amount of PCR product.
HIV-1 gag cDNA and HIV-1 (-) strong stop and gag DNA were amplified and quantified by real-time Taqman PCR as described elsewhere ^25. Sets of primers/probes were designed according to a previous study by Zack and colleagues ^26. To quantify the amount of gag RNA in the samples, a cDNA standard curve was prepared from five-fold dilutions of extracted RNA from an HXB2 viral batch, of which the RNA amount was previously determined. To quantify (-) strong stop and gag DNA in the samples, a DNA standard curve was prepared from five-fold dilutions of DNA extracted from U1 cells, which contain two copies of the HIV-1HXB2 genome per cell. Albumin was also quantified and used for normalization of all samples.

[3] = test system: several HIV-1 strains (macrophage-tropic and/or lymphocytotropic); assay: HIV-1 replication in primary cells (summary over strains and cell types); assay type: cell-based; details: Human immunodeficiency virus 1, read-out: 50% inhibitory concentration values
Description: (§1) To correct for the input virus, an extra control consisting of medium containing the same amount of input virus as added to the cells was included in the experiment. The amount of p24 in this control was subsequently subtracted from the p24 values of the samples in order to obtain the exact amount of p24 produced by the cells. p24-core antigen quantification by ELISA After 2 or 7 days incubation, samples of the supernatants were collected, inactivated by addition of Empigen (Calbiochem, La Jolla, CA, USA) and by heat inactivation at 56°C for 30 min. p24-core antigen concentration was determined by an enzyme linked immunoabsorbent assay (ELISA) (AMPAK™, DAKO, Cambridgeshire, UK) as described previously ^18,19. The optical density values were converted into p24 concentration (ng/ml) with the use of a calibration curve made by serial dilutions of recombinant p24 protein (NIBSC, UK) that was submitted to the same treatment as the samples.

3096 = assay: Drug susceptibility assay (cell-killing MTT assay) in MT-2 cells; details: Human immunodeficiency virus 1, MT2, 120 h
Description: as §2, §3, §4

in vitro = details: human, pbmc
HIV-1HXB2 [4] = assay: HIV-1 infection of PBL, p24-core antigen ELISA; assay type: cell-based; details: Human immunodeficiency virus 1, 168 h; PBL infected with HIV-1HXB2, p24 antigen after 7 days
Description: as §1

FIV UT-113 = assay: FIV infection of CrFK cells, FIV p24 ELISA; assay type: cell-based, Feline immunodeficiency virus (FIV); details: 100 to 0.024 µM, p24 after 6 days
Description: After 6 days of incubation FIV replication was measured by quantification of the p24 viral core antigen in the cell culture supernatant by an FIV p24 enzyme-linked immunoabsorbent assay as described previously ^19.

PBMC = assay: Cellular viability assay (MTT) of PBMC; details: PBMC viability, 7 days

Q: Which results are given for `CCCCC#CCSc1ccccc1OC(C)=O` [APHS, o-(acetoxyphenyl)hept-2-ynyl sulfide]?
A: inhibition of RSV replication (RSV serotype A): no inhibition of RSV replication; IC50 (HXB2): 10 µM; CC50 at 168 h [1]: 235 µM; gag cDNA levels versus untreated PBMC (HIV-1HXB2 [2]; 10 µM APHS): no significant differences; (-) strong stop DNA copy numbers versus untreated PBMC (HIV-1HXB2 [2]; 10 or 30 µM APHS, 5 or 1000 nM AZT): did not show a significant decrease; inhibition at 30 µM (HIV-1HXB2 [2]; Human immunodeficiency virus 1, 30 µM APHS, PBMC, read-out: inhibited gag production): 60%; IC50 [3]: ~10 µM; IC50 3096: 4 µM; CC50 at 168 h (in vitro): 105 µM; IC50 (HIV-1HXB2 [4]): 12 µM; effect on FIV replication (FIV UT-113): did not show any effect; cytotoxic at concentrations above (PBMC): above 30 µM
